Experimental data taken from patent US9790230B2 (Hoffmann-La Roche Inc., priority 2015, dated 2017).
Read-outs that look alike come from different tables or passages of the source.

What was measured:
rat TAAR1 = rat TAAR1 (Rattus norvegicus (Rat), UniProt Q923Y9); experiment: Radioligand binding assay on rat TAAR1;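 note: membranes from HEK293 cells stably transfected with rat TAAR1, tritiated TAAR1 radioligand, 1 h incubation at 4 °C, nonspecific binding determined with excess unlabeled ligand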
mouse TAAR1 = mouse TAAR1 (Mus musculus (Mouse), UniProt Q923Y8); experiment: Radioligand binding assay on mouse TAAR1
[1] = read-out: Ki (μM) rat, rat TAAR1, HEK-293 membranes, second value of cell mouse/rat
[2] = read-out: Ki (μM) mouse, mouse TAAR1, HEK-293 membranes, first value of cell mouse/rat

rat TAAR1, sequence (Q923Y9 whole entry): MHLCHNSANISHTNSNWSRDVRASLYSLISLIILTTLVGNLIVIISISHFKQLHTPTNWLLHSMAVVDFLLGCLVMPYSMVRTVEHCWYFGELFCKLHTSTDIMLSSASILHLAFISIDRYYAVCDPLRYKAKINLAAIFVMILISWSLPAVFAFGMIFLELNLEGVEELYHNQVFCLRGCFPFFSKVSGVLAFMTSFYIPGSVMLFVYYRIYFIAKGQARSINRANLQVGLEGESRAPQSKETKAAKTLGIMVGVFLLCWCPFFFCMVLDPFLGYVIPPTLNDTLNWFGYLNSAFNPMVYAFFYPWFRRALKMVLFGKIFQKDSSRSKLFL
mouse TAAR1, sequence (Q923Y8 whole entry): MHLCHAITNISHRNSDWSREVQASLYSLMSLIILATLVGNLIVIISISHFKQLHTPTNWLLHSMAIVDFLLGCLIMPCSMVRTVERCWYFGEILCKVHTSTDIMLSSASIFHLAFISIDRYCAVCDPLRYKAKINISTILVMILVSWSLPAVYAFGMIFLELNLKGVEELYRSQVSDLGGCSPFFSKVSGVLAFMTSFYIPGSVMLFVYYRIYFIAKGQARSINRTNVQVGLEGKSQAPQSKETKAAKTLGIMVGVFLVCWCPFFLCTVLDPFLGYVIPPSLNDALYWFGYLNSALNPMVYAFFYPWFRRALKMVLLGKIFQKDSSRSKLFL

Work on `Brc1ccc([C@@H]2O[C@H]3CN[C@@H]2C3)cc1` [Example 54, (1R,3S,4R)-3-(4-Bromophenyl)-2-oxa-5-azabicyclo[2.2.1]heptane] yielded a Ki (rat TAAR1) of 0.0346 µM and a Ki (mouse TAAR1) of 0.145 µM.

`CCc1n[nH]c(C(=O)Nc2ccc([C@H]3O[C@@H]4CN[C@H]3C4)cc2)c1C` [Example 50, 3-Ethyl-4-methyl-N-[4-[(1S,3R,4S)-2-oxa-5-azabicyclo[2.2.1]heptan-3-yl]phenyl]-1H-pyrazole-5-carboxamide] showed a Ki (rat TAAR1) of 0.344 µM and a Ki (mouse TAAR1) of 0.0128 µM.

Work on `O=C(Nc1ccc(Br)cc1)c1ccc([C@@H]2O[C@H]3CN[C@@H]2C3)cc1` [Example 86, N-(4-Bromophenyl)-4-[(1R,3S,4R)-2-oxa-5-azabicyclo[2.2.1]heptan-3-yl]benzamide] yielded a Ki (rat TAAR1) of 0.809 µM and a Ki (mouse TAAR1) of 0.0102 µM.

With `O=C(Nc1ccc([C@H]2O[C@@H]3CN[C@H]2C3)cc1)c1[nH]nc(C2CC2)c1Cl` [Example 37, 4-Chloro-3-cyclopropyl-N-[4-[(1S,3R,4S)-2-oxa-5-azabicyclo[2.2.1]heptan-3-yl]phenyl]-1H-pyrazole-5-carboxamide] the Ki (rat TAAR1) was 2.67 µM and the Ki (mouse TAAR1) was 0.0613 µM.

`Clc1ccc(Nc2ccc([C@H]3O[C@@H]4CN[C@H]3C4)cc2)nc1` [Example 20, 5-Chloro-N-[4-[(1S,3R,4S)-2-oxa-5-azabicyclo[2.2.1]heptan-3-yl]phenyl]pyridin-2-amine] showed a Ki (rat TAAR1) of 0.397 µM and a Ki (mouse TAAR1) of 0.0041 µM.

Work on `O=C(Nc1ccc(Cl)cc1)Nc1ccc([C@H]2O[C@@H]3CN[C@H]2C3)cc1` [Example 33, 1-(4-Chlorophenyl)-3-[4-[(1S,3R,4S)-2-oxa-5-azabicyclo[2.2.1]heptan-3-yl]phenyl]urea] yielded a Ki (rat TAAR1) of 0.0116 µM and a Ki (mouse TAAR1) of 0.0035 µM.

`CCOc1ccc(NC(=O)c2ccc([C@H]3O[C@@H]4CN[C@H]3C4)cc2)cn1` [Example 62, N-(6-Ethoxy-3-pyridyl)-4-[(1S,3R,4S)-2-oxa-5-azabicyclo[2.2.1]heptan-3-yl]benzamide] showed a Ki (rat TAAR1) of 0.107 µM and a Ki (mouse TAAR1) of 0.0049 µM.

Work on `CCc1n[nH]c(C(=O)Nc2ccc([C@@H]3O[C@H]4CN[C@@H]3C4)cc2)c1Br` [Example 99, 4-Bromo-3-ethyl-N-[4-[(1R,3S,4R)-2-oxa-5-azabicyclo[2.2.1]heptan-3-yl]phenyl]-1H-pyrazole-5-carboxamide] yielded a Ki (rat TAAR1) of 0.127 µM and a Ki (mouse TAAR1) of 0.0035 µM.

For `O=C(Nc1ccc([C@@H]2O[C@H]3CN[C@@H]2C3)cc1)c1ccc(OCC(F)(F)F)nc1` [Example 27, N-[4-[(1R,3S,4R)-2-Oxa-5-azabicyclo[2.2.1]heptan-3-yl]phenyl]-6-(2,2,2-trifluoroethoxy)pyridine-3-carboxamide], the Ki (rat TAAR1) was 0.0417 µM and the Ki (mouse TAAR1) was 0.0097 µM.

Molecule `Fc1ccc(CNc2ccc([C@H]3O[C@@H]4CN[C@H]3C4)cc2)cc1` [Example 40, N-[(4-Fluorophenyl)methyl]-4-[(1S,3R,4S)-2-oxa-5-azabicyclo[2.2.1]heptan-3-yl]aniline] has a Ki (rat TAAR1) of 0.19 µM and a Ki (mouse TAAR1) of 0.636 µM.

`CCCc1c(Cl)c(C(=O)Nc2ccc([C@H]3O[C@@H]4CN[C@H]3C4)cc2)nn1C` [Example 48, 4-Chloro-1-methyl-N-[4-[(1S,3R,4S)-2-oxa-5-azabicyclo[2.2.1]heptan-3-yl]phenyl]-5-propyl-pyrazole-3-carboxamide] was tested, and the Ki (rat TAAR1) was 1.35 µM and the Ki (mouse TAAR1) was 0.0114 µM.

`CC(C)c1cc(C(=O)Nc2ccc([C@@H]3O[C@H]4CN[C@@H]3C4)cc2)[nH]n1` [Example 75, 3-Isopropyl-N-[4-[(1R,3S,4R)-2-oxa-5-azabicyclo[2.2.1]heptan-3-yl]phenyl]-1H-pyrazole-5-carboxamide] was tested, and the Ki (rat TAAR1) was 0.239 µM and the Ki (mouse TAAR1) was 0.0099 µM.

In the case of `O=C(Nc1ccc([C@H]2O[C@@H]3CN[C@H]2C3)cc1)c1ccc(OCC2CC2)cc1` [Example 32, 4-(Cyclopropylmethoxy)-N-[4-[(1S,3R,4S)-2-oxa-5-azabicyclo[2.2.1]heptan-3-yl]phenyl]benzamide], the Ki (rat TAAR1) is reported as 0.164 µM and the Ki (mouse TAAR1) is reported as 0.0063 µM.

Work on `Cc1c(C2CC2)n[nH]c1C(=O)Nc1ccc([C@@H]2O[C@H]3CN[C@@H]2C3)cc1` [Example 69, 3-Cyclopropyl-4-methyl-N-[4-[(1R,3S,4R)-2-oxa-5-azabicyclo[2.2.1]heptan-3-yl]phenyl]-1H-pyrazole-5-carboxamide] yielded a Ki (rat TAAR1) of 0.153 µM and a Ki (mouse TAAR1) of 0.0066 µM.

`O=C(Nc1ccc([C@H]2O[C@@H]3CN[C@H]2C3)cc1)c1cnc(C2CC2)nc1` [Example 18, 2-Cyclopropyl-N-[4-[(1S,3R,4S)-2-oxa-5-azabicyclo[2.2.1]heptan-3-yl]phenyl]pyrimidine-5-carboxamide] showed a Ki (rat TAAR1) of 2.03 µM and a Ki (mouse TAAR1) of 0.038 µM.

For `O=C(COCCC(F)(F)F)Nc1ccc([C@@H]2O[C@H]3CN[C@@H]2C3)cc1` [Example 90, N-[4-[(1R,3S,4R)-2-Oxa-5-azabicyclo[2.2.1]heptan-3-yl]phenyl]-2-(3,3,3-trifluoropropoxy)acetamide], the Ki (rat TAAR1) was 0.398 µM and the Ki (mouse TAAR1) was 0.015 µM.

`CC(C)c1n[nH]c(C(=O)Nc2ccc([C@@H]3O[C@H]4CN[C@@H]3C4)cc2)c1Cl` [Example 102, 4-Chloro-3-isopropyl-N-[4-[(1R,3S,4R)-2-oxa-5-azabicyclo[2.2.1]heptan-3-yl]phenyl]-11H-pyrazole-5-carboxamide] was tested, and the Ki (rat TAAR1; [1]) was 0.0142 µM and the Ki (mouse TAAR1; [2]) was 0.0089 µM.

In the case of `O=C(Nc1ccc(F)cc1)c1ccc([C@@H]2O[C@H]3CN[C@@H]2C3)cc1` [Example 87, N-(4-Fluorophenyl)-4-[(1R,3S,4R)-2-oxa-5-azabicyclo[2.2.1]heptan-3-yl]benzamide], the Ki (rat TAAR1) is reported as greater than 1.45 µM and the Ki (mouse TAAR1) is reported as 0.145 µM.

In the case of `O=C(Nc1ccc([C@H]2O[C@@H]3CN[C@H]2C3)cc1)c1ccc(Cl)cc1` [Example 14, 4-Chloro-N-[4-[(1S,3R,4S)-2-oxa-5-azabicyclo[2.2.1]heptan-3-yl]phenyl]benzamide], the Ki (rat TAAR1) is reported as 0.192 µM and the Ki (mouse TAAR1) is reported as 0.005 µM.

`O=C(COCCC(F)(F)F)Nc1ccc([C@H]2O[C@@H]3CN[C@H]2C3)cc1` [Example 70, N-[4-[(1S,3R,4S)-2-Oxa-5-azabicyclo[2.2.1]heptan-3-yl]phenyl]-2-(3,3,3-trifluoropropoxy)acetamide] showed a Ki (rat TAAR1) of 0.512 µM and a Ki (mouse TAAR1) of 0.0094 µM.

`O=C(COCC(F)(F)F)Nc1ccc([C@@H]2O[C@H]3CN[C@@H]2C3)cc1` [Example 73, N-[4-[(1R,3S,4R)-2-Oxa-5-azabicyclo[2.2.1]heptan-3-yl]phenyl]-2-(2,2,2-trifluoroethoxy)acetamide] gave a Ki (rat TAAR1) of 0.857 µM and a Ki (mouse TAAR1) of 0.0177 µM.

In the case of `CCCc1n[nH]c(C(=O)Nc2ccc([C@@H]3O[C@H]4CN[C@@H]3C4)cc2)c1Cl` [Example 68, 4-Chloro-N-[4-[(1R,3S,4R)-2-oxa-5-azabicyclo[2.2.1]heptan-3-yl]phenyl]-3-propyl-1H-pyrazole-5-carboxamide], the Ki (rat TAAR1) is reported as 0.0179 µM and the Ki (mouse TAAR1) is reported as 0.0031 µM.

Work on `O=C(Nc1ccc(Cl)cc1)Nc1cccc([C@@H]2O[C@H]3CN[C@@H]2C3)c1` [Example 4, 1-(4-Chlorophenyl)-3-[3-[(1R,3S,4R)-2-oxa-5-azabicyclo[2.2.1]heptan-3-yl]phenyl]urea] yielded a Ki (rat TAAR1) of 0.0102 µM and a Ki (mouse TAAR1) of 1.28 µM.

For `FC(F)(F)c1cnc(Nc2ccc([C@H]3O[C@@H]4CN[C@H]3C4)cc2)nc1` [Example 23, N-[4-[(1S,3R,4S)-2-Oxa-5-azabicyclo[2.2.1]heptan-3-yl]phenyl]-5-(trifluoromethyl)pyrimidin-2-amine], the Ki (rat TAAR1) was 0.146 µM and the Ki (mouse TAAR1) was 0.0157 µM.

For `CCOc1ccc(NC(=O)c2ccc([C@@H]3O[C@H]4CN[C@@H]3C4)cc2)cc1` [Example 88, N-(4-Ethoxyphenyl)-4-[(1R,3S,4R)-2-oxa-5-azabicyclo[2.2.1]heptan-3-yl]benzamide], the Ki (rat TAAR1) was greater than 1.45 µM and the Ki (mouse TAAR1) was 0.0255 µM.

With `O=C(Nc1ccc([C@H]2O[C@@H]3CN[C@H]2C3)cc1)c1ccc(OCC(F)(F)F)cn1` [Example 51, N-[4-[(1S,3R,4S)-2-Oxa-5-azabicyclo[2.2.1]heptan-3-yl]phenyl]-5-(2,2,2-trifluoroethoxy)pyridine-2-carboxamide] the Ki (rat TAAR1) was 0.0438 µM and the Ki (mouse TAAR1) was 0.0034 µM.

`O=C(CCC(F)(F)F)Nc1ccc([C@H]2O[C@@H]3CN[C@H]2C3)cc1` [Example 84, 4,4,4-Trifluoro-N-[4-[(1S,3R,4S)-2-oxa-5-azabicyclo[2.2.1]heptan-3-yl]phenyl]butanamide] gave a Ki (rat TAAR1) greater than 15 µM and a Ki (mouse TAAR1) of 0.0172 µM.

Work on `Cc1cn[nH]c1C(=O)Nc1ccc([C@H]2O[C@@H]3CN[C@H]2C3)cc1` [Example 47, 4-Methyl-N-[4-[(1S,3R,4S)-2-oxa-5-azabicyclo[2.2.1]heptan-3-yl]phenyl]-1H-pyrazole-5-carboxamide] yielded a Ki (rat TAAR1) of 2.3 µM and a Ki (mouse TAAR1) of 0.313 µM.

Molecule `CCCCc1n[nH]c(C(=O)Nc2ccc([C@@H]3O[C@H]4CN[C@@H]3C4)cc2)c1F` [Example 92, 3-Butyl-4-fluoro-N-[4-[(1R,3S,4R)-2-oxa-5-azabicyclo[2.2.1]heptan-3-yl]phenyl]-111H-pyrazole-5-carboxamide] has a Ki (rat TAAR1; [1]) of 0.0879 µM and a Ki (mouse TAAR1; [2]) of 0.0033 µM.

`FC(F)(F)COc1ccnc(Nc2ccc([C@H]3O[C@@H]4CN[C@H]3C4)cc2)n1` [Example 79, N-[4-[(1S,3R,4S)-2-Oxa-5-azabicyclo[2.2.1]heptan-3-yl]phenyl]-4-(2,2,2-trifluoroethoxy)pyrimidin-2-amine] gave a Ki (rat TAAR1) of 0.0841 µM and a Ki (mouse TAAR1) of 0.006 µM.

With `O=C(Nc1ccc([C@@H]2O[C@H]3CN[C@@H]2C3)cc1)c1[nH]nc(C2CC2)c1F` [Example 77, 3-Cyclopropyl-4-fluoro-N-[4-[(1R,3S,4R)-2-oxa-5-azabicyclo[2.2.1]heptan-3-yl]phenyl]-11H-pyrazole-5-carboxamide] the Ki (rat TAAR1; [1]) was 0.137 µM and the Ki (mouse TAAR1; [2]) was 0.0048 µM.

In the case of `O=C(Nc1ccc(Cl)cc1)c1ccc([C@H]2O[C@@H]3CN[C@H]2C3)cc1` [Example 55], the Ki (rat TAAR1) is reported as 0.0123 µM and the Ki (mouse TAAR1) is reported as 0.0007 µM.

In the case of `O=C(Nc1ccc(C(F)(F)F)cc1)c1ccc([C@H]2O[C@@H]3CN[C@H]2C3)cc1` [Example 59, 4-[(1S,3R,4S)-2-Oxa-5-azabicyclo[2.2.1]heptan-3-yl]-N-[4-(trifluoromethyl)phenyl]benzamide], the Ki (rat TAAR1) is reported as 1.02 µM and the Ki (mouse TAAR1) is reported as 0.0022 µM.

For `CCN(C[C@H]1COC(N)=N1)c1ccccc1` [reference compound], the Kd (rat TAAR1; read-out: dissociation constant (Kd) of the TAAR1 radioligand, rat TAAR1 membranes, saturation curve, usual value) was roughly 2.3 nM and the Kd (mouse TAAR1; read-out: dissociation constant (Kd) of the TAAR1 radioligand, mouse TAAR1 membranes, saturation curve, usual value) was roughly 0.7 nM.
